The target of test [1] is NQO1 protein (Homo sapiens, UniProt P15559). Description: NQO1 activity measurement (cytochrome C reduction). The class given is biochemical. The conditions noted are these: 5 ng NQO1 protein, 200 μM NADH, 77 μM cytochrome C, 37° C., absorbance 550 nm for 10 minutes.
In test [2] the test system is Cells. Description: Measurement of lactate change amount within cells. The class given is cell-based. Particulars: PCA extract of cells, lactate measured from supernatant (Megazyme, K-LATE). The method, then:
Cells were treated with 400 μl of 6% PCA, and then collected and extracted. Centrifugation (13,000 rpm, 10 min) was performed. A precipitate was dried using a Speed-Vac and then a weight of dried precipitate was measured. A supernatant was neutralized using 400 μl of 1 M KOH and a final volume thereof was adjusted to 1 ml using 0.33 M KH2PO4/K2HPO4, pH 7.5. Centrifugation (13,000 rpm, 10 min) was performed and the amount of lactate was measured from a supernatant (Megazyme, K-LATE).

Test [3] has as its system C57BL/6J Lep ob/ob mice. Nature of the test: Weight loss effects in obese mice (ob/ob). The conditions noted are these: vs 0.1% SLS controls. The class given is in vivo. The method, then: 10 week-old C57BL/6J Lep ob/ob mice having genetic obesity characteristics available from ORIENTBIO were prepared. Two mice were raised in each polycarbonate breeding cage (200 W×260 L×130H (mm), Three-shine) in which temperature was 20 to 24° C., relative humidity was 35 to 65%, illuminance was 150 to 300 lux, night and day were 12 hours, and exhaust was performed at 10 to 15 air changes per hour. As a feed, low fat diet (11.9 kcal % fat, 5053, Labdiet) manufactured by ORIENTBIO was used. The feed was contained in a feeder and free intake was allowed. As drinking water, water, which was contained in a 250 mL polycarbonate based bottle, purified through a filter and a sterilizer was used and free intake was allowed.
The compound according to Example 1 synthesized in the present invention was orally administered to three C57BL/6J Lep ob/ob mice in amounts of 40 mg/kg, 80 mg/kg, and 120 mg/kg, respectively, once every day for two weeks. For administration, a disposable syringe fitted with a sonde for oral administration was used and 10 ml/kg of the compound was orally administered into the stomach. As controls, three C57BL/6J Lep ob/ob mice were administered 0.1% sodium lauryl sulfate (SLS) in an amount of 120 mg/kg in the same manner as described above. After administration, a time-dependent weight increase ratio, weight change, and intake amount were measured and results are illustrated in FIG. 1 below.
Weights of the experimental animals were measured immediately before administration of a test material and seven times a week from an administration initiation day to a test termination day. Increased total weights were calculated by subtracting weights measured on an experiment initiation day from weights measured one day before an experiment termination day. Food intake amounts were calculated by measuring feed supply amounts and remaining amounts twice a week from an initiation day of test material administration to a test termination day for each individual. […]
(§1) Experiments were performed under the same conditions as in Experimental Example 3-1 except that 15 week-old C57BL/6J Lep ob/ob mice having genetic obesity characteristics available from ORIENTBIO were prepared, the compounds according to Examples 5 and 6 were administered to three C57BL/6J Lep ob/ob mice in an amount of 150 mg/kg, 150 mg/kg of 0.1% SLS was administered to each of three C57BL/6J Lep ob/ob mice as controls, and experiments were performed for a total of one week. Weight increase ratios, weight change, and intake amounts depending on administration time were measured and results are illustrated in FIG. 5 below.
as §1, with “that 10” for “that 15”, “Examples 8, 9,” for “Examples 5”, “and 12” for “and 6”, “FIG. 6” for “FIG. 5”
Experiments were performed under the same conditions as in Experimental Example 3-1 except that 6 week-old C57BL/6J Lep ob/ob mice having genetic obesity characteristics available from ORIENTBIO were prepared, the compounds according to Examples 17, 18, 22, and 23 were administered to three C57BL/6J Lep ob/ob mice in an amount of 100 mg/kg, 100 mg/kg of 0.1% SLS was administered to each of three C57BL/6J Lep ob/ob mice as controls, and experiments were performed for a total of one week. Weight increase ratios, weight change, and intake amounts depending on administration time were measured and results are illustrated in FIG. 10 below. […]

Setting [4] is: Exp. Ex. 3-7, FIG. 10: 6 week-old ob/ob mice, 100 mg/kg oral, one week.
[5] abbreviates: Exp. Ex. 3-8, FIG. 11: 10 week-old ob/ob mice, 150 mg/kg oral, five days.
Setting [6] is: Exp. Ex. 3-3, FIG. 3: 11 week-old ob/ob mice, 100 mg/kg oral, total of 6 days.
[7] abbreviates: Exp. Ex. 3-4, FIG. 4: 12 week-old ob/ob mice, 150 mg/kg oral, one week.
[8] abbreviates: Exp. Ex. 3-5, FIG. 5: 15 week-old ob/ob mice, 150 mg/kg oral, one week.
Where [9] appears, read: Exp. Ex. 3-11, FIG. 14: 6.5 week-old ob/ob mice, 100 mg/kg oral, one week.
[10] abbreviates: Exp. Ex. 3-10, FIG. 13: 6 week-old ob/ob mice, 100 mg/kg oral, two weeks.
[11] abbreviates: Exp. Ex. 3-12, FIG. 15: 6 week-old ob/ob mice, 100 mg/kg oral, two weeks.
[12] abbreviates: Exp. Ex. 3-13, FIG. 16: 6 week-old ob/ob mice, 100 mg/kg oral, one week.
The mark [13] stands for this setting: Exp. Ex. 3-6, FIG. 6: 10 week-old ob/ob mice, 150 mg/kg oral, one week.

We go through eleven compounds from patent US10766882B2, “1,2-naphthoquinone based derivative and method of preparing the same” (YUNGJIN PHARM. CO., LTD., priority 2013, dated 2020).

Chain of NQO1 protein (P15559 whole entry, species assumed): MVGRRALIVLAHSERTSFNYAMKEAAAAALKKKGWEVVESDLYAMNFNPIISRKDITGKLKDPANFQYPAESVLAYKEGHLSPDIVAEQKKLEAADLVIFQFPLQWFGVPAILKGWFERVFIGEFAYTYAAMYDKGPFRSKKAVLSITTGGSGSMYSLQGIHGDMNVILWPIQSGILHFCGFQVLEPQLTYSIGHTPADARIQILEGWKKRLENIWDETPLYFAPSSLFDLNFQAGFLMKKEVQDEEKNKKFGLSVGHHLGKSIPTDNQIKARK

As to `CC(C)c1nc2c([nH]1)C(=O)C(=O)c1cc(N)ccc1-2` [Example 18], the “NQO1 activity (5 μM, [nmol cytochrome C reduced/min/μg protein])” value in test [1] is recorded as 177.5 nmol cytochrome C reduced/min/μg protein. Further, the “Lactate change amount within cells (nmol/mg cell)” value (“Lactate change amount within cells” below) in test [2] is 6.6 nmol/mg cell. In test [3] (setting [4]), the intake amount result is recorded as “significantly decreased in some sections”, the weight change entry is “significantly decreased in some sections” and the weight increase ratio entry is given as “significantly decreased in some sections”.
Consider `CCc1nc2c([nH]1)C(=O)C(=O)c1cc(F)ccc1-2` [Example 26], for which the “NQO1 activity (5 μM, [nmol cytochrome C reduced/min/μg protein])” value in test [1] is reported as 223.5 nmol cytochrome C reduced/min/μg protein. For the same compound, the “Lactate change amount within cells” value in test [2] is reported as 5.7 nmol/mg cell. Moreover, in test [3] (setting [5]), the intake amount entry was “significantly decreased in some sections”, the weight change result is “significantly decreased in some sections” and the weight increase ratio result is listed as “significantly decreased in some sections”.
For the compound `CC(C)c1nc2c(n1C)-c1ccccc1C(=O)C2=O` [Example 3, 2-isopropyl-1-methyl-1H-naphtho[2,1-d]imidazole-4,5-dione], the “NQO1 activity (5 μM, [nmol cytochrome C reduced/min/μg protein])” value in test [1] was 139 nmol cytochrome C reduced/min/μg protein. In addition, the “Lactate change amount within cells” value in test [2] is reported as 11.3 nmol/mg cell. In test [3] (setting [6]), the intake amount entry is given as “significantly decreased” and the weight increase ratio entry is on record as “significantly decreased”.
Turning to `CC(C)(C)c1nc2c([nH]1)C(=O)C(=O)c1ccccc1-2` [Example 5, 2-tert-butyl-3H-naphtho[2,1-d]imidazole-4,5-dione], the “NQO1 activity (5 μM, [nmol cytochrome C reduced/min/μg protein])” value in test [1] is given as 153 nmol cytochrome C reduced/min/μg protein. In addition, the “Lactate change amount within cells” value in test [2] amounted to 8.5 nmol/mg cell. Moreover, in test [3] (setting [7]), the intake amount result is reported as “significantly decreased”, the weight change result is reported as “significantly decreased” and the weight increase ratio result is “significantly decreased”. Moreover, in test [3] (setting [8]), the intake amount entry is listed as “significantly decreased”, the weight change result was “significantly decreased” and the weight increase ratio result is “significantly decreased”.
For `Cc1nc2c(n1C)C(=O)C(=O)c1ccccc1-2` [Example 96], the “NQO1 activity (5 μM, [nmol cytochrome C reduced/min/μg protein])” value in test [1] is given as 21.4 nmol cytochrome C reduced/min/μg protein. For the same compound, in test [2], the “Lactate change amount within cells” value was 5.7 nmol/mg cell. Moreover, in test [3] (setting [9]), the intake amount result is listed as “significantly decreased in some sections”, the weight change entry is listed as “significantly decreased in some sections” and the weight increase ratio entry is “significantly decreased in some sections”.
Turning to `CC(C)c1nc2c([nH]1)C(=O)C(=O)c1cc(Cl)ccc1-2` [Example 17], the “NQO1 activity (5 μM, [nmol cytochrome C reduced/min/μg protein])” value in test [1] is 206.9 nmol cytochrome C reduced/min/μg protein. Further, the “Lactate change amount within cells” value in test [2] came out at 6.0 nmol/mg cell. Moreover, in test [3] (setting [4]), the intake amount result was “significantly decreased in some sections”, the weight change result is “significantly decreased in some sections” and the weight increase ratio entry was “significantly decreased in some sections”.
As for `CC(C)c1nc2c(n1C)C(=O)C(=O)c1ccccc1-2` [Example 35], the “NQO1 activity (5 μM, [nmol cytochrome C reduced/min/μg protein])” value in test [1] is 190.3 nmol cytochrome C reduced/min/μg protein. The “Lactate change amount within cells” value in test [2] came out at 8.1 nmol/mg cell. In test [3] (setting [10]), the intake amount entry was “significantly decreased in some sections”, the weight change result is recorded as “significantly decreased in some sections” and the weight increase ratio entry is reported as “significantly decreased in some sections”. Besides, in test [3] (setting [11]), the intake amount entry is listed as “significantly decreased in some sections”, the weight change entry is recorded as “significantly decreased in some sections” and the weight increase ratio result is “significantly decreased in some sections”.
Regarding `CC(C)c1nc2c([nH]1)C(=O)C(=O)c1cc(N(C)C)ccc1-2` [Example 23], the “NQO1 activity (5 μM, [nmol cytochrome C reduced/min/μg protein])” value in test [1] is given as 78.4 nmol cytochrome C reduced/min/μg protein. Moreover, the “Lactate change amount within cells” value in test [2] is listed as 5.6 nmol/mg cell. For the same compound, in test [3] (setting [4]), the intake amount entry is reported as “significantly decreased in some sections”, the weight change result is “significantly decreased in some sections” and the weight increase ratio result is “significantly decreased in some sections”.
Turning to `CCc1nc2c([nH]1)C(=O)C(=O)c1cc(Cl)ccc1-2` [Example 45, 7-chloro-2-ethyl-3H-naphtho[2,1-d]imidazole-4,5-dione], the “NQO1 activity (5 μM, [nmol cytochrome C reduced/min/μg protein])” value in test [1] is listed as 188.6 nmol cytochrome C reduced/min/μg protein. Besides, the “Lactate change amount within cells” value in test [2] was determined as 5.7 nmol/mg cell. In addition, in test [3] (setting [12]), the intake amount result was “significantly decreased in some sections”, the weight change result is “significantly decreased in some sections” and the weight increase ratio result is given as “significantly decreased in some sections”.
For `CCc1nc2c([nH]1)C(=O)C(=O)c1ccccc1-2` [Example 9], the “NQO1 activity (5 μM, [nmol cytochrome C reduced/min/μg protein])” value in test [1] is listed as 172 nmol cytochrome C reduced/min/μg protein. For the same compound, the “Lactate change amount within cells” value in test [2] is listed as 8.0 nmol/mg cell. Moreover, in test [3] (setting [13]), the intake amount result is “significantly decreased”, the weight change entry was “significantly decreased” and the weight increase ratio entry is “significantly decreased”.
For the compound `O=C1C(=O)c2[nH]c(C3CC3)nc2-c2ccccc21` [Example 12], in test [1], the “NQO1 activity (5 μM, [nmol cytochrome C reduced/min/μg protein])” value is 184 nmol cytochrome C reduced/min/μg protein. Besides, the “Lactate change amount within cells” value in test [2] was 7.0 nmol/mg cell. Moreover, in test [3] (setting [13]), the intake amount entry is given as “significantly decreased”, the weight change result is “significantly decreased” and the weight increase ratio result is on record as “significantly decreased”.
